Results reported in patent publication US20130096119A1, “Isoquinolin-3-Ylurea Derivatives” (priority 2010, published 2013).
In brackets after ≈: the same amount, converted by molar mass.

tested on: S. pneumoniae ATCC 49619; experiment: Minimal inhibitory concentration (MIC) by microdilution method (CLSI M7-A7); assay type: cell-based, Streptococcus pneumoniae; conditions: Streptococcus pneumoniae, ATCC49619, cation-adjusted Mueller-Hinton Broth supplemented with 3% (v/v) lysed horse blood
In short: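 For S. pneumoniae, cation-adjusted Mueller-Hinton broth carried 3% (v/v) lysed horse blood; MICs (mg/l) were read by CLSI M7-A7 microdilution.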

Molecule	MIC [µg/mL]
CCNC(=O)Nc1cc2cccc(Cn3ccnc3C)c2cn1 [Example 297, 1-ethyl-3-[8-(2-methyl-imidazol-1-ylmethyl)-isoquinolin-3-yl]-urea]	4 (≈ 12.9 µM)
CCNC(=O)Nc1cc2cc(NCC3CC3)cc(C)c2cn1.Cl [Example 133, 1-{6-[(cyclopropylmethyl)-amino]-8-methyl-isoquinolin-3-yl}-3-ethyl-urea hydrochloride]	16
CCNC(=O)Nc1cc2cc(-c3cccc4[nH]ccc34)cc(C)c2cn1 [Example 90, 1-ethyl-3-[6-(1H-indol-4-yl)-8-methyl-isoquinolin-3-yl]-urea]	2 (≈ 5.81 µM)
CCNC(=O)Nc1cc2cc(-c3cscc3C)cc(C)c2cn1 [Example 80, 1-ethyl-3-[8-methyl-6-(4-methyl-thiophen-3-yl)-isoquinolin-3-yl]-urea]	16 (≈ 49.2 µM)
CCNC(=O)Nc1cc2c(-c3cccc(CN)c3)ccc(Nc3cccnc3)c2cn1 [Example 232, 1-(5-(3-(aminomethyl)phenyl)-8-(pyridin-3-ylamino)isoquinolin-3-yl)-3-ethylurea]	2 (≈ 4.85 µM)
CCNC(=O)Nc1cc2c(-c3ccc(CO)nc3)ccc(C)c2cn1 [Example 8, 1-ethyl-3-[5-(6-hydroxymethyl-pyridin-3-yl)-8-methyl-isoquinolin-3-yl]-urea]	4 (≈ 11.9 µM)
CCNC(=O)Nc1cc2c(-c3cscn3)ccc(Nc3cccc(OC)n3)c2cn1 [Example 290, 1-ethyl-3-[8-(6-methoxy-pyridin-2-ylamino)-5-thiazol-4-yl-isoquinolin-3-yl]-urea]	0.5 (≈ 1.19 µM)
CCNC(=O)Nc1cc2c(CN3CCN(C)CC3)ccc(Nc3cccc(OC)n3)c2cn1 [Example 276, 1-ethyl-3-[8-(6-methoxy-pyridin-2-ylamino)-5-(4-methyl-piperazin-1-ylmethyl)-isoquinolin-3-yl]-urea]	4 (≈ 8.9 µM)
CCNC(=O)Nc1cc2c(-c3ccncc3)ccc(-c3ccncc3)c2cn1 [Example 72, 1-(5,8-di-pyridin-4-yl-isoquinolin-3-yl)-3-ethyl-urea]	2 (≈ 5.41 µM)
CCNC(=O)Nc1cc2c(Br)ccc(OC)c2cn1 [Example 73, 1-(5-bromo-8-methoxy-isoquinolin-3-yl)-3-ethyl-urea]	8 (≈ 24.7 µM)
CCNC(=O)Nc1cc2cc(NCc3ccc4cn[nH]c4c3)cc(C)c2cn1 [Example 184, 1-ethyl-3-{6-[(1H-indazol-6-ylmethyl)-amino]-8-methyl-isoquinolin-3-yl}-urea]	4 (≈ 10.7 µM)
CCNC(=O)Nc1cc2cc(-c3cncc(S(C)(=O)=O)c3)cc(C)c2cn1 [Example 103, 1-ethyl-3-[6-(5-methanesulfonyl-pyridin-3-yl)-8-methyl-isoquinolin-3-yl]-urea]	0.5 (≈ 1.3 µM)
CCNC(=O)Nc1cc2cccc(Nc3ccc(CC(=O)NCc4ccccc4)cc3)c2cn1.Cl [Example 208, N-benzyl-2-{4-[3-(3-ethyl-ureido)-isoquinolin-8-ylamino]-phenyl}-acetamide hydrochloride]	8
CCNC(=O)Nc1cc2cccc(Nc3cccc(CC(=O)N(C)C)c3)c2cn1.Cl [Example 211, 2-{3-[3-(3-ethyl-ureido)-isoquinolin-8-ylamino]phenyl}-N,N-dimethyl-acetamide hydrochloride]	4
CCNC(=O)Nc1cc2c(-c3cccnc3)ccc(Nc3cccnc3)c2cn1 [Example 224, 1-ethyl-3-[5-pyridin-3-yl-8-(pyridin-3-ylamino)-isoquinolin-3-yl]-urea]	0.5 (≈ 1.3 µM)
CCNC(=O)Nc1cc2cc(-c3cccc(NC(C)=O)c3)cc(C)c2cn1 [Example 37, N-{3-[3-(3-ethyl-ureido)-8-methyl-isoquinolin-6-yl]-phenyl}-acetamide]	1 (≈ 2.76 µM)
CCNC(=O)Nc1cc2c(F)ccc(NC(=O)c3ccccc3)c2cn1 [Example 51, N-[3-(3-ethyl-ureido)-5-fluoro-isoquinolin-8-yl]-benzamide]	1 (≈ 2.84 µM)
CCNC(=O)Nc1cc2cc(-c3cccc(C(=O)OCC)c3)cc(C)c2cn1 [Example 84, 3-[3-(3-ethyl-ureido)-8-methyl-isoquinolin-6-yl]-benzoic acid ethyl ester]	0.5 (≈ 1.32 µM)
CCNC(=O)Nc1cc2c(-c3cc(C)nc(C)c3)ccc(C)c2cn1 [Example 44, 1-[5-(2,6-dimethyl-pyridin-4-yl)-8-methyl-isoquinolin-3-yl]-3-ethyl-urea]	4 (≈ 12 µM)
CCNC(=O)Nc1cc2cccc(NC(=O)c3ccccc3)c2cn1 [Example 70, N-[3-(3-ethyl-ureido)-isoquinolin-8-yl]-benzamide]	16 (≈ 47.8 µM)
CCNC(=O)Nc1cc2cccc(Nc3cccc(CC(N)=O)c3)c2cn1.Cl [Example 255, 2-{3-[3-(3-ethyl-ureido)-isoquinolin-8-ylamino]-phenyl}-acetamide hydrochloride]	4
CCNC(=O)Nc1cc2cccc(Nc3cccc(O)c3)c2cn1 [Example 170, 1-ethyl-3-[8-(3-hydroxy-phenylamino)-isoquinolin-3-yl]-urea]	2 (≈ 6.2 µM)

Molecule	MIC [µg/mL]
CCNC(=O)Nc1cc2cccc(CNc3ccccn3)c2cn1.Cl [Example 263, 1-ethyl-3-[8-(pyridin-2-ylaminomethyl)-isoquinolin-3-yl]-urea hydrochloride]	4
CCNC(=O)Nc1cc2cc(NCc3ccccc3)cc(Nc3cccnc3)c2cn1 [Example 239, 1-[6-benzylamino-8-(pyridin-3-ylamino)-isoquinolin-3-yl]-3-ethyl-urea]	0.5 (≈ 1.21 µM)
CCNC(=O)Nc1cc2cccc(COc3ccc(C)nc3)c2cn1.Cl [Example 256, 1-ethyl-3-[8-(6-methyl-pyridin-3-yloxymethyl)-isoquinolin-3-yl]-urea hydrochloride]	8
CCNC(=O)Nc1cc2cccc(Nc3cccc(OC)n3)c2cn1 [Example 178, 1-ethyl-3-[8-(6-methoxy-pyridin-2-ylamino)-isoquinolin-3-yl]-urea]	2 (≈ 5.93 µM)
CCNC(=O)Nc1cc2cccc(Cn3ccnc3)c2cn1 [Example 299, 1-ethyl-3-(8-imidazol-1-ylmethyl-isoquinolin-3-yl)-urea]	4 (≈ 13.5 µM)
CCNC(=O)Nc1cc2c(-c3ccccc3O)ccc(C)c2cn1 [Example 3, 1-ethyl-3-[5-(2-hydroxy-phenyl)-8-methyl-isoquinolin-3-yl]-urea]	1 (≈ 3.11 µM)
CCNC(=O)Nc1cc2cccc(Nc3ccc(C(=O)O)cc3)c2cn1 [Example 202, 4-[3-(3-ethyl-ureido)-isoquinolin-8-ylamino]-benzoic acid]	1 (≈ 2.85 µM)
CCNC(=O)Nc1cc2c(-c3ccnc(OC)c3)ccc(C)c2cn1 [Example 42, 1-ethyl-3-[5-(2-methoxy-pyridin-4-yl)-8-methyl-isoquinolin-3-yl]-urea]	2 (≈ 5.95 µM)
CCNC(=O)Nc1cc2c(F)c(NCc3ccccc3)cc(-c3cnc(OC)nc3)c2cn1 [Example 110, 1-[6-benzylamino-5-fluoro-8-(2-methoxy-pyrimidin-5-yl)-isoquinolin-3-yl]-3-ethyl-urea]	1 (≈ 2.24 µM)
CCNC(=O)Nc1cc2cccc(Nc3cccc(CC(=O)O)c3)c2cn1 [Example 209, {3-[3-(3-ethyl-ureido)-isoquinolin-8-ylamino]-phenyl}-acetic acid]	4 (≈ 11 µM)
CCNC(=O)Nc1cc2cc(NC(=O)c3ccncc3)cc(C)c2cn1 [Example 116, N-[3-(3-ethyl-ureido)-8-methyl-isoquinolin-6-yl]-isonicotinamide]	0.125 (≈ 0.358 µM)
CCNC(=O)Nc1cc2cc(-c3ccsc3)cc(C)c2cn1 [Example 93, 1-ethyl-3-(8-methyl-6-thiophen-3-yl-isoquinolin-3-yl)-urea]	2 (≈ 6.42 µM)
CCCNc1cc(C)c2cnc(NC(=O)NCC)cc2c1 [Example 115, 1-ethyl-3-(8-methyl-6-propylamino-isoquinolin-3-yl)-urea]	4 (≈ 14 µM)
CCNC(=O)Nc1cc2cc(-c3cncnc3C(C)C)cc(C)c2cn1 [Example 95, 1-ethyl-3-[6-(4-isopropyl-pyrimidin-5-yl)-8-methyl-isoquinolin-3-yl]-urea]	16 (≈ 45.8 µM)
CCNC(=O)Nc1cc2cc(-c3cccc(NC(C)=O)c3)cc(Nc3cccnc3)c2cn1 [Example 236, N-{3-[3-(3-ethyl-ureido)-8-(pyridin-3-ylamino)-isoquinolin-6-yl]-phenyl}-acetamide]	0.5 (≈ 1.14 µM)
CCNC(=O)Nc1cc2c(-c3ccncc3)ccc(C)c2cn1 [Example 61, 1-ethyl-3-(8-methyl-5-pyridin-4-yl-isoquinolin-3-yl)-urea]	1 (≈ 3.26 µM)
CCNC(=O)Nc1cc2cccc(Nc3ncccc3C)c2cn1.Cl [Example 167, 1-ethyl-3-[8-(3-methyl-pyridin-2-ylamino)-isoquinolin-3-yl]-urea hydrochloride]	8
CCNC(=O)Nc1cc2cc(-c3ccc(S(C)(=O)=O)cc3)cc(C)c2cn1 [Example 94, 1-ethyl-3-[6-(4-methanesulfonyl-phenyl)-8-methyl-isoquinolin-3-yl]-urea]	0.25 (≈ 0.652 µM)
CCNC(=O)Nc1cc2cc(-c3ccc(C(=O)N(C)C)cc3)cc(C)c2cn1 [Example 24, 4-[3-(3-ethyl-ureido)-8-methyl-isoquinolin-6-yl]-N,N-dimethyl-benzamide]	0.25 (≈ 0.664 µM)
CCNC(=O)Nc1cc2c(-c3ccnc(C)c3)ccc(Nc3cccc(C(=O)NC)c3)c2cn1 [Example 247, 3-[3-(3-ethyl-ureido)-5-(2-methyl-pyridin-4-yl)-isoquinolin-8-ylamino]-N-methyl-benzamide]	0.25 (≈ 0.55 µM)
CCNC(=O)Nc1cc2cccc(Nc3ccc(C)nc3)c2cn1.Cl [Example 164, 1-ethyl-3-[8-(6-methyl-pyridin-3-ylamino)-isoquinolin-3-yl]-urea hydrochloride]	2
CCNC(=O)Nc1cc2cc(NC(=O)c3cccc(C(=O)OC)c3)cc(C)c2cn1 [Example 194, N-[3-(3-ethyl-ureido)-8-methyl-isoquinolin-6-yl]isophthalamic acid methyl ester]	4 (≈ 9.84 µM)

same assay, conditions: cation-adjusted Mueller-Hinton Broth supplemented with 3% (v/v) lysed horse blood

Molecule	MIC for S. pneumoniae ATCC 49619 [µg/mL]
1-(8-chloro-5-pyrimidin-4-yl-isoquinolin-3-yl)-3-ethyl-urea [Example 289]	2
CCNC(=O)Nc1cc2c(CNC)ccc(Nc3cccc(OC)n3)c2cn1 [Example 271, 1-ethyl-3-{8-[(6-methoxy-pyridin)-2-ylamino]-5-[(methylamino)methyl]-isoquinolin-3-yl}-urea]	4
